This assay deals with T1, DPP-4 (Homo sapiens, UniProt P27487).
T1 construct: purchased MAK203
In words: in vitro DPP-4 inhibitory activity assay (DPP-4 inhibitor screening kit MAK203). It counts as biochemical. The conditions noted are these: fluorescence assay kit, 37°C; IC50 from linear equation of inhibition % vs concentration. Here is the method:
The in vitro DPP-4 inhibitory activity of the prepared compounds was evaluated using the DPP-4 inhibitor screening kit (MAK203) according to the test protocol with slight modifications ([17]). […] Substrate solutions (25 μL) were added to each well, covered, and incubated at 37°C for 30 minutes. […] The following formula was used to calculate the percent inhibition (Equation 1):
Inhibition %= (initial activity-inhibitor activity)/initial activity×100 %
The IC50 value was calculated from y = a + bx (linear equation) obtained from the relation of the inhibition activity (%) (y) and the concentration (x) of the substance being measured.

T1 sequence (P27487 whole entry): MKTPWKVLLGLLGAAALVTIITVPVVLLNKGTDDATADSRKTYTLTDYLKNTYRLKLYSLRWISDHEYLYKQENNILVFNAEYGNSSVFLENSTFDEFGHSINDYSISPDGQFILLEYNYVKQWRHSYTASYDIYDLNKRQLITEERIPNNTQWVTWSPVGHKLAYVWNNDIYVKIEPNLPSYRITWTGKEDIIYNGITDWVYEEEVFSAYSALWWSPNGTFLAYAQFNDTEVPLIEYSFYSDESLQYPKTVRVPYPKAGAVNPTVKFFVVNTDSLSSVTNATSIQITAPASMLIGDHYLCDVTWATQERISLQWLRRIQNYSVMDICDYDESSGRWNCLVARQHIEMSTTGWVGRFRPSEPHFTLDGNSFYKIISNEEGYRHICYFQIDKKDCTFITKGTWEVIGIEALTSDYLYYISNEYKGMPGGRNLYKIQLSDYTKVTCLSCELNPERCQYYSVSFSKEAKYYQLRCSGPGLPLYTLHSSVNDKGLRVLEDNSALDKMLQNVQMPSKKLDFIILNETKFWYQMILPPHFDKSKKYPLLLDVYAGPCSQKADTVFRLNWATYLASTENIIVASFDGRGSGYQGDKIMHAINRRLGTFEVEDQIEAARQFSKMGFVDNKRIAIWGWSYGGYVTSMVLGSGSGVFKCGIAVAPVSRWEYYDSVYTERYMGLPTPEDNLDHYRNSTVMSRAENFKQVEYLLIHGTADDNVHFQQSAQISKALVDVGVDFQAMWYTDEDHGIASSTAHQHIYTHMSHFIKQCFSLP

In the case of `CN(C)Cc1nc2ccccc2c(=O)n1Cc1ccccc1C#N` [5a, 2-({2-[Dimethylaminomethyl]quinazolin-4-one-3-yl}methyl)benzonitrile], half-maximal inhibition (IC50) required 4.92 µM.

Take `CCN(CC)Cc1nc2ccccc2c(=O)n1Cc1ccccc1C#N` [5b, 2-({2-[Diethylaminomethyl]quinazolin-4-one-3-yl}methyl)benzonitrile]: it took 5.29 µM to reach half-maximal inhibition (IC50).

Regarding `CCCCN(CCCC)Cc1nc2ccccc2c(=O)n1Cc1ccccc1C#N` [5c, 2-({2-[Dibutylaminomethyl]quinazolin-4-one-3-yl}methyl)benzonitrile], the IC50 was 6.78 µM.

`N#Cc1ccccc1Cn1c(CN2CCOCC2)nc2ccccc2c1=O` [5d, 2-({2-[Morpholinomethyl]quinazolin-4-one-3-yl}methyl)benzonitrile] returned an IC50 of 1.46 µM.

In turn, `N#Cc1ccccc1Cn1c(CN2CCCC2)nc2ccccc2c1=O` [5e, 2-({2-[Pyrrolidinomethyl]quinazolin-4-one-3-yl}methyl)benzonitrile] had an IC50 of 3.07 µM.

`CN1CCN(Cc2nc3ccccc3c(=O)n2Cc2ccccc2C#N)CC1` [5f, 2-({2-[N-methylpiperazinomethyl]quinazolin-4-one-3-yl}methyl)benzonitrile]: the IC50 was 3.56 µM.

(Values after PMC12296639, “Synthesis and Bioactivity Investigation of Novel 2-({2-[(Dialkylamino) Methyl] Quinazolin-4-one-3-yl} Methyl) Benzonitrile Derivatives as Dipeptidyl Peptidase-4 Inhibitory Agent” (Iranian Journal of Pharmaceutical Research : IJPR, 2025).)
